Measurements: EP3964206A1, “COMPOUNDS FOR THE TREATMENT OF COVID-19” (priority 2020, dated 2022)
Structures can show the parent of a compound that is named as a salt.

Test system: SARS-CoV-2
Test: microbe, parasite or virus in culture
Format: cell-based
Conditions: Severe acute respiratory syndrome coronavirus 2, 120 h; for Emax: read-out: Maximum confluence reached (%)

| SMILES | Emax [%] | IC50 [µM] |
| --- | --- | --- |
| CC1(N2CCC(n3c([C@@H]4CCCNC4)nc4ccccc43)CC2)CCCCCCC1 [Compound 51, 1-[1-(1-Methylcyclooctyl)piperidin-4-yl]-2-[3(R)-piperidinyl]-1H-benzimidazole] | 57.8 |  |
| CC[C@@]1([C@@H]2O[C@@H]([C@H]3O[C@@](O)(COC(=O)Nc4ccccc4)[C@H](C)C[C@@H]3C)C[C@@H]2C)CC[C@H]([C@]2(C)CC[C@]3(C[C@H](O)[C@@H](C)[C@@H]([C@@H](C)[C@@H](OC)[C@H](C)C(=O)O)O3)O2)O1 [Compound 98, 4(S)-[(2S,5R,7S,8R,9S)-2-[(2S,2'R,3'S,5R,5'R)-2-Ethyl-5'-[6(R)-hydroxy-3(S),5(R)-dimethyl-6-(phenylaminocarbonyloxymethyl)tetrahydropyran-2(S)-yl]-3'-methylperhydro-2,2'-bifuran-5-yl]-9-hydroxy-2,8-dimethyl-1,6-dioxaspiro[4.5]dec-7-yl]-3(R)-methoxy-2(S)-methylpentanoic acid sodium salt] | 38.2 | 3.18 |
| COc1cc2c(NC3CCN(C4CCCCC4)CC3)nc(N3CCCN(C(C)C)CC3)nc2cc1OCCCN1CCCCC1 [Compound 59, N-(1-Cyclohexylpiperidin-4-yl)-6-methoxy-7-[3-(1-piperidinyl)propoxy]-2-[4-(propan-2-yl)perhydro-1,4-diazepin-1-yl]quinazolin-4-amine] | 80.1 |  |
| Cc1c(O)cccc1C(=O)N[C@@H](CSc1ccccc1)[C@H](O)CN1C[C@H]2CCCC[C@H]2C[C@H]1C(=O)NC(C)(C)C [Compound 31, (3S,4aS,8aS)-N-tert-Butyl-2-[2(R)-hydroxy-3(R)-(3-hydroxy-2-methylbenzamido)-4-(phenylsulfanyl)butyl]perhydroisoquinoline-3-carboxamide methanesulfonate] | 59.5 |  |
| O=C(C1CC1)N1CC[C@@H](Cc2n[nH]c(=O)n2-c2ccc(-c3ccc4ccoc4c3)cc2)C1 [Compound 67, 4-[4-(1-Benzofuran-6-yl)phenyl]-5-[1-(cyclopropylcarbonyl)pyrrolidin-3(S)-ylmethyl]-3,4-dihydro-2H-1,2,4-triazol-3-one] | 31.1 | 17 |
| O=C(Nc1ccc(Cl)c(Cl)c1)Nc1ccc(Cl)c(Cl)c1 [Compound 72, 1,3-Bis(3,4-dichlorophenyl)urea] | 45.9 |  |
| Nc1nc(NC[C@H]2CC[C@H](CNS(=O)(=O)c3cccc4ccccc34)CC2)nc2ccccc12 [Compound 97, N-[[trans-4-[[(4-Amino-2-quinazolinyl)amino]methyl]cyclohexyl]methyl]-1-naphthalenesulfonamide] | 39.2 |  |
